# Columns and labels:
# Format in all cases: cell-based
# [1] = Cellular growth inhibition assay (CellTiter-Glo), Ba/F3 (Empty vector); conditions: mouse, Ba/F3 cells with empty vector; Ba/F3 (Empty vector) with 10 ng/ml rmIL-3, 3 days of incubation
# Experimental: (§1) Example E. Cellular Growth Inhibition Assay
# (§2) Ba/F3(Empty vector) (Signosis), Ba/F3(Wild type) (Signosis), Ba/F3(L^858R+T790M) (Signosis), Ba/F3(A767_dupASV) (Signosis), Ba/F3(D770_N771insSVD) (Signosis), Ba/F3(H773_V774insNPH) (Signosis) were seeded at a density of 4000 cells per well in a CellBIND® 384-well Flat Clear Bottom Black Polystyrene Microplates (Coming, USA, Cat #3770) in 45 μl total volume of RPMI (PanEco, Cat #C330, Russia) with […] (HyClone, Cat #SV30160.03) and with 10 ng/ml rmIL-3 (RD systems, USA, Cat #403-ML-025) (for BaBF3(Empty vector)) and with 10 ng/ml rhEGF (ThermoFisher, USA, Cat #PHG0311L) (for BaCF3(Wild type)). 500× compounds solutions in DMSO (Sigma Cat #D2650) were prepared into Cmpnds plate (DiamondWell Plate, Axigen, Cat #P-384-120SQ-C—S) and DMSO only control was included. 1.l of 500× compounds (Cmpnds plate) was added to 49 µl of culture medium into Dilution plate (Diamond Well Plate, Axigen, Cat #P-384-120SQ-C—S), mixed and then 5 μl of 10× compounds solutions were transferred to cells followed by centrifugation at 100 g for 1 min. Final DMSO concentration was 0.2% o. After 3 days of incubation 10.l of CellTiter-Glo (Promega, CAT #G7572) were added to the cells, plate was centrifuged at 100 g for 1 min and luminescence signal was measured using Microplate Reader (CLARIOStar).
# Ba/F3 (L858R + T790M) = experiment: Cellular growth inhibition assay (CellTiter-Glo), Ba/F3 (L858R+T790M); conditions: Mus musculus, BaF3, 72 h; 3 days of incubation
# Experimental: as §1, §2
# Ba/F3 (EGFRwt) = experiment: Cellular growth inhibition assay (CellTiter-Glo), Ba/F3 (EGFRwt); conditions: Mus musculus, BaF3, 72 h; Ba/F3 (Wild type) with 10 ng/ml rhEGF, 3 days of incubation
# Experimental: as §1, §2
# Ba/F3 (D770_N771insSVD) = experiment: Cellular growth inhibition assay (CellTiter-Glo), Ba/F3 (D770_N771insSVD); conditions: Mus musculus, BaF3, 72 h; 3 days of incubation; read-out: Ba/F3 (D770_N771 insSVD) CC50
# Experimental: as §1, §2
# Ba/F3 (H773_V774insSVD) = experiment: Cellular growth inhibition assay (CellTiter-Glo), Ba/F3 (H773_V774insSVD); conditions: Mus musculus, BaF3, 72 h; 3 days of incubation; read-out: Ba/F3 (H773_V774 insSVD) CC50
# Ba/F3 (A767_dupASV) = experiment: Cellular growth inhibition assay (CellTiter-Glo), Ba/F3 (A767_dupASV); conditions: Mus musculus, BaF3, 72 h; 3 days of incubation; read-out: Ba/F3 (A767_dup ASV) CC50
# Experimental: as §1, §2
smiles,measurement,setting,value
"COc1c(F)cccc1Nc1c2[nH]c3c1C(=O)NCC3CCCCN(C)CCOc1cnccc1-2 (stereo not drawn) [Compound 127, 19-[(3-Fluoro-2-methoxyphenyl)amino]-8-methyl-6,7,8,9,10,11,12,12a,13,14-decahydro-16,18-methenodipyrido[3,4-i:4′,3′-m][1,4,11]oxadiazacyclotetradecin-15(17H)-one]",CC50 at 3 days,[1],> 10 µM
same,CC50,Ba/F3 (L858R + T790M),> 10 µM
same,CC50,Ba/F3 (EGFRwt),1 to 10 µM
same,CC50,Ba/F3 (D770_N771insSVD),> 10 µM
same,CC50,Ba/F3 (H773_V774insSVD),> 10 µM
same,CC50,Ba/F3 (A767_dupASV),1 to 10 µM
"COc1c(F)cccc1Nc1c2[nH]c3c1C(=O)NC[C@H]3CC(=O)N1CCC[C@H]1C(=O)NCCCOc1cnccc1-2 [Compound 148, (16aS,22aR)-23-(3-fluoro-2-methoxyanilino)-14,15,16a,17,18,19,22,22a-octahydro-2H,12H-4,6-(metheno)dipyrido[3,4-k: 4′,3′-o]pyrrolo[2,1-g][1,5,8,13]oxatriazacyclohexadecine-3,16,21(1H,5H,13H)-trione]",CC50 at 3 days,[1],> 10 µM
same,CC50,Ba/F3 (L858R + T790M),> 10 µM
same,CC50,Ba/F3 (EGFRwt),> 10 µM
same,CC50,Ba/F3 (D770_N771insSVD),> 10 µM
same,CC50,Ba/F3 (H773_V774insSVD),> 10 µM
same,CC50,Ba/F3 (A767_dupASV),> 10 µM
"COc1c(F)cccc1Nc1c2[nH]c3c1C(=O)NCC3CC(=O)NCC(=O)NCCCOc1cnccc1-2 (stereo not drawn) [Compound 132, 21-(3-fluoro-2-methoxyanilino)-6,7,8,9,11,12,14,14a,15,16-decahydro-18,20-(metheno)dipyrido[3,4-k: 4′,3′-o][1,5,8,13]oxatriazacyclohexadecine-10,13,17(19H)-trione]",CC50 at 3 days,[1],> 10 µM
same,CC50,Ba/F3 (L858R + T790M),> 10 µM
same,CC50,Ba/F3 (EGFRwt),> 10 µM
same,CC50,Ba/F3 (D770_N771insSVD),> 10 µM
same,CC50,Ba/F3 (H773_V774insSVD),> 10 µM
same,CC50,Ba/F3 (A767_dupASV),1 to 10 µM
"COc1c(F)cccc1Nc1c2[nH]c3c1C(=O)NCC3CCCCCCC(=O)N1CCCC(COc3cnccc3-2)C1 (stereo not drawn) [Compound 119, 25-[(3-Fluoro-2-methoxyphenyl)amino]-7,8,9,10,14,15,16,17,18,18a,19,20-dodecahydro-6H-7,11-methano-22,24-methenodipyrido[3,4-b:4′,3′-f][1,5,15]oxadiazacycloicosine-12,21(13H,23H)-dione]",CC50 at 3 days,[1],> 10 µM
same,CC50,Ba/F3 (L858R + T790M),> 10 µM
same,CC50,Ba/F3 (EGFRwt),1 to 10 µM
same,CC50,Ba/F3 (D770_N771insSVD),1 to 10 µM
same,CC50,Ba/F3 (H773_V774insSVD),> 10 µM
same,CC50,Ba/F3 (A767_dupASV),0.1 to 1 µM
"COc1c(F)cccc1Nc1c2[nH]c3c1C(=O)NCC3C/C=C/COc1cccc(c1)COc1cnccc1-2 (stereo not drawn) [Compound 29, (19E)-28-[(3-Fluoro-2-methoxyphenyl)amino]-3,22-dioxa-6,11,15-triazapentacyclo[21.3.1^10,13.0^4,9.0^12,17]octacosa-1(27),4,6,8,10(28),12,19,23,25-nonaen-14-one]",CC50 at 3 days,[1],> 10 µM
same,CC50,Ba/F3 (L858R + T790M),1 to 10 µM
same,CC50,Ba/F3 (EGFRwt),0.1 to 1 µM
same,CC50,Ba/F3 (D770_N771insSVD),0.1 to 1 µM
same,CC50,Ba/F3 (H773_V774insSVD),1 to 10 µM
same,CC50,Ba/F3 (A767_dupASV),0.1 to 1 µM
"COc1c(F)cccc1Nc1c2[nH]c3c1C(=O)NCC3CC(=O)NCCOCCOCCOc1cnccc1-2 (stereo not drawn) [Compound 150, 23-(3-fluoro-2-methoxyanilino)-6,7,9,10,13,14,16,16a,17,18-decahydro-20,22-(metheno)dipyrido[3,4-m: 4′,3′-q][1,4,7,10,15]trioxadiazacyclooctadecine-15,19(12H,21H)-dione]",CC50 at 3 days,[1],> 10 µM
same,CC50,Ba/F3 (L858R + T790M),> 10 µM
same,CC50,Ba/F3 (EGFRwt),> 10 µM
same,CC50,Ba/F3 (D770_N771insSVD),> 10 µM
same,CC50,Ba/F3 (H773_V774insSVD),> 10 µM
same,CC50,Ba/F3 (A767_dupASV),> 10 µM
"COc1c(F)cccc1Nc1c2[nH]c3c1C(=O)NC(CC=CCOCCOc1cnccc1-2)C3 (stereo not drawn) [Compound 128, 20-(3-fluoro-2-methoxyanilino)-2,3,5,8,9,10-hexahydro-9,13-methano-12,15-(metheno)pyrido[3,4-e][1,4,8,12]dioxadiazacycloheptadecin-11(14H)-one]",CC50 at 3 days,[1],> 10 µM
same,CC50,Ba/F3 (L858R + T790M),> 10 µM
same,CC50,Ba/F3 (EGFRwt),1 to 10 µM
same,CC50,Ba/F3 (D770_N771insSVD),> 10 µM
same,CC50,Ba/F3 (H773_V774insSVD),> 10 µM
same,CC50,Ba/F3 (A767_dupASV),1 to 10 µM
"COc1c(F)cccc1Nc1c2[nH]c3c1C(=O)NCC3C/C=C/CCCC(=O)N1CCCC(COc3cnccc3-2)C1 (stereo not drawn) [Compound 118, 25-[(3-Fluoro-2-methoxyphenyl)amino]-7,8,9,10,14,15,18,18a,19,20-decahydro-6H-7,11-methano-22,24-methenodipyrido[3,4-b:4′,3′-f][1,5,15]oxadiazacycloicosine-12,21(13H,23H)-dione]",CC50 at 3 days,[1],1 to 10 µM
same,CC50,Ba/F3 (L858R + T790M),1 to 10 µM
same,CC50,Ba/F3 (EGFRwt),1 to 10 µM
same,CC50,Ba/F3 (D770_N771insSVD),1 to 10 µM
same,CC50,Ba/F3 (H773_V774insSVD),1 to 10 µM
same,CC50,Ba/F3 (A767_dupASV),0.1 to 1 µM
"COc1c(F)cccc1Nc1c2[nH]c3c1C(=O)NC[C@@H]3CCCN1CCO[C@H](COc3cnccc3-2)C1 [Compound 157, (7S)-21-[(3-Fluoro-2-methoxyphenyl)amino]-6,7,9,10,12,13,14,14a,15,16-decahydro-7,11-methano-18,20-methenodipyrido[3,4-k:4′,3′-o][1,4,7,13]dioxadiazacyclohexadecin-17(19H)-one]",CC50 at 3 days,[1],> 10 µM
same,CC50,Ba/F3 (L858R + T790M),> 10 µM
same,CC50,Ba/F3 (EGFRwt),> 10 µM
same,CC50,Ba/F3 (D770_N771insSVD),> 10 µM
same,CC50,Ba/F3 (H773_V774insSVD),> 10 µM
same,CC50,Ba/F3 (A767_dupASV),> 10 µM
"COc1c(F)cccc1Nc1c2[nH]c3c1C(=O)NCC3CC(=O)N1CCN(CCOCCOc3cnccc3-2)CC1 (stereo not drawn) [Compound 153, 29-(3-Fluoro-2-methoxyanilino)-18,21-dioxa-1,6,10,15,24-pentaazapentacyclo[22.2.2.1^8,110^4,9.0^12,17]nonacosa-8,11(29),12(17),13,15-pentaene-2,7-dione]",CC50 at 3 days,[1],> 10 µM
same,CC50,Ba/F3 (L858R + T790M),> 10 µM
same,CC50,Ba/F3 (EGFRwt),> 10 µM
same,CC50,Ba/F3 (D770_N771insSVD),> 10 µM
same,CC50,Ba/F3 (H773_V774insSVD),> 10 µM
same,CC50,Ba/F3 (A767_dupASV),> 10 µM
"COc1c(F)cccc1Nc1c2[nH]c3c1C(=O)NCC3CCCCCCN1CCCC(COc3cnccc3-2)C1 (stereo not drawn) [Compound 129, 24-(3-fluoro-2-methoxyanilino)-7,8,9,10,13,14,15,16,17,17a,18,19-dodecahydro-6H,12H-7,11-methano-21,23-(metheno)dipyrido[3,4-b: 4′,3′-f][1,5,14]oxadiazacyclononadecin-20(22H)-one]",CC50 at 3 days,[1],> 10 µM
same,CC50,Ba/F3 (L858R + T790M),1 to 10 µM
same,CC50,Ba/F3 (EGFRwt),0.1 to 1 µM
same,CC50,Ba/F3 (D770_N771insSVD),0.01 to 0.1 µM
same,CC50,Ba/F3 (H773_V774insSVD),0.1 to 1 µM
same,CC50,Ba/F3 (A767_dupASV),0.001 to 0.01 µM
"COc1c(F)cccc1Nc1c2[nH]c3c1C(=O)NCC3CC(=O)N(C)CC(=O)NCCCOc1cnccc1-2 (stereo not drawn) [Compound 149, 21-(3-fluoro-2-methoxyanilino)-12-methyl-6,7,8,9,11,12,14,14a,15,16-decahydro-18,20-(metheno)dipyrido[3,4-k: 4′,3′-o][1,5,8,13]oxatriazacyclohexadecine-10,13,17(19H)-trione]",CC50 at 3 days,[1],> 10 µM
same,CC50,Ba/F3 (L858R + T790M),> 10 µM
same,CC50,Ba/F3 (EGFRwt),> 10 µM
same,CC50,Ba/F3 (D770_N771insSVD),1 to 10 µM
same,CC50,Ba/F3 (H773_V774insSVD),> 10 µM
same,CC50,Ba/F3 (A767_dupASV),1 to 10 µM

# — patent US20250282795A1, “EGFR Inhibitors in cancer treatment” (Celyn Therapeutics, Inc., priority 2022, published 2025)
